Test results published in ChEMBL document CHEMBL1151592, “Synthesis of new 3,4-disubstituted pyrrolidines as thromboxane A2/prostaglandin H2 (TP) receptor antagonists” (Bioorg Med Chem Lett, 1996).

Assays:
[1] = organism: Homo sapiens; test: Compound was evaluated for anti-platelet activity by measuring its inhibitory effect on human platelet rich plasma (PRP) aggregated with U-46,619.; assay type: functional
[2] = test system: Cavia porcellus; test: Compound was evaluated in vivo for inhibition of U 46619 induced increase in tracheal pressure of guinea pig.; assay type: functional; settings: Trachea, read-out: ID50 (the source's name)
[3] = molecular target: Thromboxane A2 receptor (Cavia porcellus); test: Antagonistic activity against TP-receptor by inhibition of U 46619-induced contraction of isolated guinea pig trachea; settings: read-out: pA2 (converted)

Row | Structure (SMILES) | IC50 [1] [nM] | ED50 [2] [mg/kg] | Kb [3] [nM]
1 | O=C(O)CC/C=C\C[C@@H]1CN(S(=O)(=O)c2cccc3ccccc23)C[C@@H]1c1ccccc1O | 600 | 0.0075 | 
2 | O=C(O)CC/C=C\C[C@@H]1CN(S(=O)(=O)c2ccc(Cl)cc2)C[C@@H]1c1ccccc1O | 4700 | 0.03 | 1
3 | CC(C)C(=O)N1C[C@@H](C/C=C\CCC(=O)O)[C@@H](c2ccccc2O)C1 |  | 0.11 | 
4 | O=C(O)CCC/C=C\C[C@@H]1CN(S(=O)(=O)c2cccc3ccccc23)C[C@@H]1c1ccccc1O | 3600 | 0.08 | 6.31
5 | O=C(O)CC/C=C\C[C@@H]1CN(Cc2cccnc2)C[C@@H]1c1ccccc1O |  | 1 | 
6 | O=C(O)CC/C=C\C[C@@H]1CN(S(=O)(=O)c2cccc3cnccc23)C[C@@H]1c1ccccc1O | 1300 | 0.011 | 
7 | O=C(O)CC/C=C\C[C@@H]1CO[C@H](c2ccccc2Cl)O[C@@H]1c1ccccc1O |  | 0.0007 | 
8 | O=C(O)CC/C=C\C[C@@H]1CN(S(=O)(=O)c2cccc3cnccc23)C[C@H]1c1ccccc1O |  | 0.056 | 
9 | CCCCCCC(=O)N1C[C@@H](C/C=C\CCC(=O)O)[C@@H](c2ccccc2O)C1 |  | 0.43 | 
10 | O=C(O)CC/C=C\C[C@@H]1CN(Cc2ccccc2)C[C@@H]1c1ccccc1O |  | 0.17 | 251
11 | O=C(O)CC/C=C\C[C@@H]1CN(S(=O)(=O)c2ccc(Cl)cc2)C[C@H]1c1ccccc1O |  | 0.12 | 12.6
12 | O=C(O)CC/C=C\C[C@@H]1CN(S(=O)(=O)c2cccc3cccnc23)C[C@@H]1c1ccccc1O | 3000 | 0.025 | 
